Assay results: US20130102595A1 (Curis, Inc., priority 2011, published 2013)

Key:
[1] = system: HDACs (HeLa cell nuclear extracts); experiment: HDAC enzymatic activity, Biomol Color de Lys system; assay type: biochemical; settings: 1 hour, 25° C.
Procedure, shortened: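 HeLa nuclear extract incubated with serially diluted compound and […] artificial substrate in 50 mM Tris/Cl pH 8.0, 137 mM NaCl, 2.7 mM KCl, 1 mM MgCl2. Run 1 h at 25 °C, stopped with developer. Fluorescence read (ex 350-380, em 440-460 nm); IC50 from sigmoidal dose-response fit.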

PI3Kα (p110α/p85α) = target: T1, PI3Kα (p110α/p85α) (Homo sapiens, UniProt P42336); experiment: PI3Kα ADP-Glo assay; assay type: biochemical; settings: 20 μM PIP2, 10 μM ATP, 30 minutes
T1 construct: GST (N); made in house; host or cells: Baculovirus-infected Sf9 cells
Procedure, shortened: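 Recombinant full-length human GST-p110α/His-p85α, co-expressed in Sf9 cells, was incubated 30 min at room temperature with 20 μM PIP2 and 10 μM ATP. The buffer was 50 mM HEPES pH 7.4, 150 mM NaCl, 5 mM MgCl2, 1 mM DTT, 3 µM orthovanadate and 0.5% DMSO. ADP formed was detected by ADP-Glo luminescence.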

[2] = target: T2, mTor serine/threonine protein kinase (Homo sapiens, UniProt P42345); experiment: mTor kinase radioisotope assay; assay type: biochemical; settings: 70 uM ATP, 40 minutes; read-out: m-TOR IC50
T2 construct: FLAG; made in house; host or cells: Baculovirus expression system in Sf21 cells
Experimental: (F) an In Vitro Assay which-Determines the Ability of a Test Compound to Inhibit mTor Serine/Threonine Protein Kinase.
The ability of compounds to inhibit mTor activity was assayed using standard radioisotope assay for kinase. Briefly, FLAG-tagged, recombinant full-length human mTor (GenBank accession No. NM_004958) was expressed using baculovirus expression system in Sf21 cells and purified using antibody affinity column. Purified enzyme was incubated with c-terminal fragment of p70S6K as it's substrate in the presence of ATP. p33 ATP tracers were included in the assay to monitor the enzyme activity. Final assay condition was with 50 mM HEPES pH 7.5, 1 mM EGTA, 0.01% Tween 20, 2 mg/ml substrate, 3 mM Manganese Chloride and 70 uM of ATP and was carried out at room temperature for 40 minutes. The reaction was then stopped by the addition of 3% phosphoric acid solution. 10 ul of the reaction was spotted onto a P30 filtermat and washed three times for 5 minutes in 75 mM phosphoric acid and once in methanol prior to drying and scintillation counting. Different concentrations of compounds were added to reaction to assess the activity of compounds to inhibit mTor kinase. IC50 was calculated using Prism software with sigmoidal dose-response curve fitting.

CFPAC-1 = experiment: Cell proliferation assay (CellTiter-Glo); assay type: cell-based; settings: Homo sapiens, Pancreas, 72 hours, 0.5% fetal bovine serum, read-out: antiproliferative activity IC50, CFPAC-1
Experimental: (§1) Cell Proliferation Assay:
(§2) Cancer cell lines were plated at 5,000 to 10,000 per well in 96-well flat bottomed plates with various concentration of compounds. The cells were incubated with compounds for 72 hours in the presence of 0.5% of fetal bovine serum. Growth inhibition was accessed by adenosine triphosphate (ATP) content assay using Promega CellTiter-Glo kit. Promega CellTiter-Glo kit is an ATP monitoring system based on firefly luciferase. Briefly, 16 μl of mammalian cell lysis and substrate solution was added to 84 μl of culture medium per well to lyse the cells and stabilize the ATP. The mixture was shaken and incubated for 30 minutes and subsequently the luminescence was measured.

CaPan2 = experiment: Cell proliferation assay (CellTiter-Glo); assay type: cell-based; settings: Homo sapiens, Capan-2; Pancreas; 72 hours, 0.5% fetal bovine serum; read-out: antiproliferative activity IC50, CaPan2
Experimental: as §1, §2

Calu6 = experiment: Cell proliferation assay (CellTiter-Glo); assay type: cell-based; settings: Homo sapiens, Calu-6; NSCLC; 72 hours, 0.5% fetal bovine serum; read-out: antiproliferative activity IC50, Calu6
Experimental: as §1, §2

MDA-MB-231 = experiment: Cell proliferation assay (CellTiter-Glo); assay type: cell-based; settings: Homo sapiens, Breast, 72 hours, 0.5% fetal bovine serum, read-out: antiproliferative activity IC50, MDA-MB-231
Experimental: as §1, §2

MiaPaca1 = experiment: Cell proliferation assay (CellTiter-Glo); assay type: cell-based; settings: Pancreas; 72 hours, 0.5% fetal bovine serum; read-out: antiproliferative activity IC50, MiaPaca1
Experimental: as §1, §2

PANC-1 = experiment: Cell proliferation assay (CellTiter-Glo); assay type: cell-based; settings: Homo sapiens, Pancreas, 72 hours, 0.5% fetal bovine serum, read-out: antiproliferative activity IC50, PANC-1
Experimental: as §1, §2

SW1990 = experiment: Cell proliferation assay (CellTiter-Glo); assay type: cell-based; settings: Homo sapiens, Pancreas, 72 hours, 0.5% fetal bovine serum, read-out: antiproliferative activity IC50, SW1990
Experimental: as §1, §2

WiDr = experiment: Cell proliferation assay (CellTiter-Glo); assay type: cell-based; settings: Homo sapiens, Colon, 72 hours, 0.5% fetal bovine serum, read-out: antiproliferative activity IC50, WiDr
Experimental: as §1, §2

HCT116 = experiment: Cell proliferation assay (CellTiter-Glo); assay type: cell-based; settings: Homo sapiens, HCT-116; Colon; 72 hours, 0.5% fetal bovine serum; read-out: antiproliferative activity IC50, HCT116
Experimental: as §1, §2

T1 sequence (P42336 whole entry): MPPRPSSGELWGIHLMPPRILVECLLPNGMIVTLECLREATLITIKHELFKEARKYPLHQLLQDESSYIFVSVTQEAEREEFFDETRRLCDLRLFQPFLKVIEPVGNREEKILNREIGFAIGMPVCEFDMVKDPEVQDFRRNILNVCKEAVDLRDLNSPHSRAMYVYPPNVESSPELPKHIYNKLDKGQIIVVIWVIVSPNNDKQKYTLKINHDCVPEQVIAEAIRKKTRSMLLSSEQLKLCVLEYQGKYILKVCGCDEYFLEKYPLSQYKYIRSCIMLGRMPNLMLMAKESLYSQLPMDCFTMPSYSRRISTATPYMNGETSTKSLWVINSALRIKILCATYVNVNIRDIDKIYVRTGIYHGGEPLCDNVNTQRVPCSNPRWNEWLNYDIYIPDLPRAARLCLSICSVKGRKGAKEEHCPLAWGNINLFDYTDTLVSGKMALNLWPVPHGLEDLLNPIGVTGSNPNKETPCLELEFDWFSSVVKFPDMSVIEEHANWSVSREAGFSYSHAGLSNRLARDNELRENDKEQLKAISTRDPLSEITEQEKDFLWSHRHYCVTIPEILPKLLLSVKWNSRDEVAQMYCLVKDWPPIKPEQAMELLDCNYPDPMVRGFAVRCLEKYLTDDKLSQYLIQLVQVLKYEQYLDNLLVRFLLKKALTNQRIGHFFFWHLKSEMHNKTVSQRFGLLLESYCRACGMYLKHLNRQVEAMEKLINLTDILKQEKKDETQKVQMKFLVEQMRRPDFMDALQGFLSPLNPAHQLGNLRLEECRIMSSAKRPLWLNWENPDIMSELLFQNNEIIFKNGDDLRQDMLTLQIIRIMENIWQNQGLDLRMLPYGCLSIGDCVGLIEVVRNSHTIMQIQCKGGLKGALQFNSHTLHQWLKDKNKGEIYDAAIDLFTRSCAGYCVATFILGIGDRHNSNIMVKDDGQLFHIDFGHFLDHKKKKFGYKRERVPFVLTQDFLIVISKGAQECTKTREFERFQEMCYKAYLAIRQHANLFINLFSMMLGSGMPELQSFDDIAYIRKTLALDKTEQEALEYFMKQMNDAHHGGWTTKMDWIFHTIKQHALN
T1 sequence (P27986 whole entry partner): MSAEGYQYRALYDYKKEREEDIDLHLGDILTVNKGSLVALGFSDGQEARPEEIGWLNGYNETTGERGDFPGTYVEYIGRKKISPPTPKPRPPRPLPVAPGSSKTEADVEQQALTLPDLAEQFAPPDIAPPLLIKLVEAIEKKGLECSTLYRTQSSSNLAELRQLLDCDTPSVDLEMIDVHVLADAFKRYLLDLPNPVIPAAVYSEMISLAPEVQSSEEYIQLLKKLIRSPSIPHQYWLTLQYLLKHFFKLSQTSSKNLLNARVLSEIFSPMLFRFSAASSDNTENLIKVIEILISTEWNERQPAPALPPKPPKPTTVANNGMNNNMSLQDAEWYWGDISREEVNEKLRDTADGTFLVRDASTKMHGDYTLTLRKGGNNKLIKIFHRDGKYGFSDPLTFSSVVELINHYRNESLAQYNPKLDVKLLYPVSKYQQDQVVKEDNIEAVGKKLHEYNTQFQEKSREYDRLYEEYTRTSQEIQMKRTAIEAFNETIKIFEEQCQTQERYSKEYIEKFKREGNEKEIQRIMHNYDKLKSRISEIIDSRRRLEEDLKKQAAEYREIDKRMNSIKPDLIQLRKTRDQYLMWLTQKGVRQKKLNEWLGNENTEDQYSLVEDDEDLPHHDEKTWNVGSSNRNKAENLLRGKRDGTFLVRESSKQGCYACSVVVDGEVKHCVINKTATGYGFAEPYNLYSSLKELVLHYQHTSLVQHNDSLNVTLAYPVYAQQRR

Row | SMILES | IC50 [1] [nM] | IC50 (PI3Kα (p110α/p85α)) [nM] | IC50 [2] [nM] | IC50 (CFPAC-1) [nM] | IC50 (CaPan2) [nM] | IC50 (Calu6) [nM] | IC50 (MDA-MB-231) [nM] | IC50 (MiaPaca1) [nM] | IC50 (PANC-1) [nM] | IC50 (SW1990) [nM] | IC50 (WiDr) [nM] | melting point [°C] | IC50 (HCT116) [nM]
1 | Cc1ncc(-c2nc(N3CCOCC3)c3sc(CN(C)c4ncc(C(=O)NO)cn4)cc3n2)cn1 [Compound 120, N-hydroxy-2-(methyl((2-(2-methylpyrimidin-5-yl)-4-morpholinothieno[3,2-d]pyrimidin-6-yl)methyl)amino)pyrimidine-5-carboxamide] | < 100 | < 100 | 100 to 1000 | 100 to 1000 | 100 to 1000 | 10 to 100 | 10 to 100 | 10 to 100 | 100 to 1000 | 10 to 100 | 10 to 100 | 184 to 186 | 
2 | CN(Cc1cc2nc(-c3ccc4[nH]cnc4c3)nc(N3CCOCC3)c2s1)c1ncc(C(=O)NO)cn1 [Compound 187, 2-(((2-(1H-benzo[d]imidazol-5-yl)-4-morpholinothieno[3,2-d]pyrimidin-6-yl)methyl)(methyl)amino)-N-hydroxypyrimidine-5-carboxamide] | < 100 | < 100 |  | 100 to 1000 | 100 to 1000 | 100 to 1000 | 100 to 1000 | 10 to 100 | 100 to 1000 | 10 to 100 | 10 to 100 | 231 to 239 | 
3 | Cc1nc2ccc(-c3nc(N4CCOCC4)c4sc(CN(C)c5ncc(C(=O)NO)cn5)cc4n3)cc2[nH]1 [Compound 199, N-hydroxy-2-(methyl((2-(2-methyl-3H-benzo[d]imidazol-5-yl)-4-morpholinothieno[3,2-d]pyrimidin-6-yl)methyl)amino)pyrimidine-5-carboxamide] | < 100 | < 100 |  |  | 1000 to 10000 | 100 to 1000 | 10 to 100 | 10 to 100 | 100 to 1000 | 10 to 100 | 10 to 100 | 230 to 233 | 
4 | Cc1nc(N)ncc1-c1nc(N2CCOCC2)c2sc(CN(C)c3ncc(C(=O)NO)cn3)cc2n1 [Compound 125, 2-(((2-(2-amino-4-methylpyrimidin-5-yl)-4-morpholinothieno[3,2-d]pyrimidin-6-yl)methyl)(methyl)amino)-N-hydroxypyrimidine-5-carboxamide] | < 100 | < 100 |  |  |  |  |  |  |  |  |  | 195 to 198 | 10 to 100
5 | CC(=O)Nc1ccc(-c2nc(N3CCOCC3)c3sc(CN(C)c4ncc(C(=O)NO)cn4)cc3n2)cc1 [Compound 157, 2-(((2-(4-acetamidophenyl)-4-morpholinothieno[3,2-d]pyrimidin-6-yl)methyl)(methyl)amino)-N-hydroxypyrimidine-5-carboxamide] | < 100 | < 100 | < 100 |  |  | 10 to 100 |  |  |  |  | 100 to 1000 | 228 to 230 | 
6 | CC(=O)Nc1ccc(-c2nc(N3CCOCC3)c3sc(CN(C)c4ncc(C(=O)NO)cn4)cc3n2)cn1 [Compound 112, 2-(((2-(6-acetamidopyridin-3-yl)-4-morpholinothieno[3,2-d]pyrimidin-6-yl)methyl)(methyl)amino)-N-hydroxypyrimidine-5-carboxamide] | < 100 | < 100 |  | 100 to 1000 | 100 to 1000 | 10 to 100 | 10 to 100 | 10 to 100 | 10 to 100 | 10 to 100 | 100 to 1000 | 197 to 201 | 
7 | CN(Cc1cc2nc(-c3cccnc3)nc(N3CCOCC3)c2s1)c1ncc(C(=O)NO)cn1 [Compound 109, N-hydroxy-2-(methyl((4-morpholino-2-(pyridin-3-yl)thieno[3,2-d]pyrimidin-6-yl)methyl)amino)pyrimidine-5-carboxamide] | < 100 | < 100 | 100 to 1000 |  |  |  |  |  |  |  |  | 160 to 164 | 
8 | COc1ncc(-c2nc(N3CCOCC3)c3sc(CN(C)c4ncc(C(=O)NO)cn4)cc3n2)cn1 [Compound 261, N-Hydroxy-2-(((2-(2-methoxypyrimidin-5-yl)-4-morpholinothieno[3,2-d]pyrimidin-6-yl)methyl)(methyl)amino)pyrimidine-5-carboxamide] | < 100 | < 100 |  |  |  |  | 10 to 100 |  |  |  |  | 215 to 220 | 
9 | CN(Cc1cc2nc(-c3cccc(O)c3)nc(N3CCOCC3)c2s1)c1ncc(C(=O)NO)cn1 [Compound 132, N-hydroxy-2-(((2-(3-hydroxyphenyl)-4-morpholinothieno[3,2-d]pyrimidin-6-yl)methyl)(methyl)amino)pyrimidine-5-carboxamide] | < 100 | < 100 | < 100 |  |  | 10 to 100 | 10 to 100 |  |  |  | 100 to 1000 | 175 to 181 | 
10 | CN(Cc1cc2nc(-c3cccc4[nH]ncc34)nc(N3CCOCC3)c2s1)CC1CCN(c2ncc(C(=O)NO)cn2)CC1 [Compound 16, 2-(4-((((2-(1H-indazol-4-yl)-4-morpholinothieno[3,2-d]pyrimidin-6-yl)methyl)(methyl)amino)methyl)piperidin-1-yl)-N-hydroxypyrimidine-5-carboxamide] | 100 to 1000 | < 100 | 1000 to 10000 |  |  |  |  |  |  |  |  | 174 to 175 | 
11 | CN(Cc1cc2nc(-c3ccc(N)c(CO)c3)nc(N3CCOCC3)c2s1)c1ncc(C(=O)NO)cn1 [Compound 285, 2-(((2-(4-Amino-3-(hydroxymethyl)phenyl)-4-morpholinothieno[3,2-d]pyrimidin-6-yl)methyl)(methyl)amino)-N-hydroxypyrimidine-5-carboxamide] | < 100 | < 100 | < 100 |  |  |  |  |  |  |  |  | 195 to 200 | 
